Test system: Culex sp. mosquitos
Experiment: Laboratory test of samples with and without surfactant against Culex sp. mosquitos
Format: in vivo
Description: Various amounts of different surfactants were evaluated to determine possible impacts on efficacy. In one set of trials, different amounts of sulfoxaflor were tested with and without a surfactant (Pluronic L92 from BASF).

[1] = sulfoxaflor 0.5 wt.%, surfactant (Pluronic L92) 20 wt.%
[2] = sulfoxaflor 0.5 wt.%, surfactant None
[3] = sulfoxaflor 1 wt.%, surfactant None

CC(c1ccc(C(F)(F)F)nc1)S(C)(=O)=NC#N (centres unmarked) [Sulfoxaflor, sulfoxaflor]
1-hour knockdown [1]: 2%
24 hour mortality [1]: 64%
48 hour mortality [1]: 92%
1-hour knockdown [2]: 0%
24 hour mortality [2]: 27%
48 hour mortality [2]: 76%
72 hour mortality [2]: 86%
1-hour knockdown [3]: 18%
24 hour mortality [3]: 62%
48 hour mortality [3]: 94%
72 hour mortality [3]: 98%

Reference: patent US20230189805A1, “MULTI-SOLVENT INSECTICIDAL COMPOSITIONS INCLUDING SULFOXIMINE” (CLARKE MOSQUITO CONTROL PRODUCTS, INC., priority 2020, published 2023)
